For one test, the system named is NUGC3 cells (p53 Y220C). As to the kind of experiment: Cell Proliferation Assay (CellTiter-Glo), NUGC3 p53 Y220C. The following applies: Homo sapiens, NUGC-3, 120 h, 5 days, read-out: CTG NUGC3 P53 Y220C IC50. It counts as cell-based. In a few lines:
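Seeded at 250–500 cells/well, then compound-treated for 5 days; the NCIH1299 lines carry Tet-One inducible p53 Y220C or R273H transduced lentivirally. Viability by CellTiter-Glo luminescence after 10 min at room temperature; IC50 calculated.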
For orientation: ATP-based viability assays read luminescence as a measure of living cells.

Test [1] addresses T1, p53 Y220C mutant protein (amino acid residues 94-293) (Homo sapiens, UniProt P04637, Y220C).
T1 construct: p53 Y220C mutant protein (amino acid residues 94-293)
As to the kind of experiment: Surface Plasmon Resonance (SPR) assay, p53 Y220C Kd_kinetic. The following applies: multi-cycle kinetics, 16 or 20 °C, pH 7.5, 1:1 binding model. In a few lines:
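Kd from multi-cycle SPR kinetics fitted to a 1:1 model, using 2-fold, 7-point compound series over p53 Y220C (residues 94-293). Flow 30 μL/min, 60 s association, 120 s dissociation, at 16 or 20 °C in 50 mM Tris pH 7.5, 100 mM NaCl, 1 mM DTT, 0.01% Brij35, 0.05% Tween-20, 1% DMSO.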

The next test addresses p53 Y220C (Homo sapiens, UniProt P04637, Y220C). Description: Luciferase Reporter Assay, p53 Y220C (NCIH1299 cells with inducible p53 Y220C and p53 response element-luciferase). The settings on record: 6 hour compound treatment, read-out: Luc P53 Y220C AC50. It counts as cell-based. An outline of the steps:
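NCI-H1299 cells stably carrying a p53 response element-luciferase reporter and Tet-inducible p53 Y220C were induced with 0.5 ug/mL doxycycline for 24 h, then treated with compound for 6 h. Luminescence was read after One-Glo addition. AC50 was derived relative to 10 uM tool compound as positive control.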
(In a reporter assay the amount or activity of a reporter protein is the signal.)

For test [2], the system named is NCIH1299-inducible p53 Y220C cells. As to the kind of experiment: Cell Proliferation Assay (CellTiter-Glo), NCIH1299-inducible p53 Y220C. The settings on record: Homo sapiens, NCI-H1299, 120 h, 5 days, read-out: CTG H1299 P53 Y220C IC50. The class given is cell-based. On the procedure: Inducible p53 Y220C and R273H constructs (Tet-One inducible expression system; Takara) were stably expressed in NCIH1299 cells by lentiviral transduction. NUGC3, A549, BxPC3, T3M4, HuH7, HCC2935, MFE296, NCIH1299, NCIH1299-inducible p53 Y220C, and NCIH1299-inducible p53 R273H cell lines were used for cell proliferation assay. 250-500 cells were seeded in each well of 384 plate and then compounds were dispensed into each well using Echo or Tecan. After 5 days of incubation, equal volume of CellTiter-Glo reagent (G7570; Promega) was added into each well and the plate was incubated at room temperature for 10 minutes with shaking. The luminescent signal was measured by PheraStar microplate reader and IC50 was calculated.

Among the data in US20260347353A1, “INDOLIZINE DERIVATIVES FOR TREATING CANCER” (Antares Therapeutics, Inc., priority 2022, published 2026) are IC50, Kd and AC50 values, retold here.

The IC50 is the concentration needed to halve the response being measured. Broadly, the Kd is the constant that tells how readily two partners part at equilibrium. The AC50 is the concentration giving half of the maximal activity seen.

T1 sequence (P04637 94-293, stated change not applied): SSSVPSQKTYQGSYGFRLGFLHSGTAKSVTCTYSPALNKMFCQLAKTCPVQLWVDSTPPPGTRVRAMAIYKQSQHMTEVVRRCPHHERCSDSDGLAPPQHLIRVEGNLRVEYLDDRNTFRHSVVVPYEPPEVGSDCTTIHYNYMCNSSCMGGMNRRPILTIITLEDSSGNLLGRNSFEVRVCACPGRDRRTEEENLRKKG

`COC1(C(=O)NCc2nc(-c3cc4c(N[C@@H]5CCN(C)C[C@@H]5F)cccn4c3SC(F)(F)F)no2)CC1` [Example 26, N-{[3-(8-{[(3S,4R)-3-fluoro-1-methylpiperidin-4-yl]amino}-3-[(trifluoromethyl)sulfanyl]indolizin-2-yl)-1,2,4-oxadiazol-5-yl]methyl}-1-methoxycyclopropane-1-carboxamide]: the IC50 (in the test with NUGC3 cells (p53 Y220C); in test [2]) was 1500 to 3000 nM each time. The Kd in test [1] lay in the range of 10 to 100 nM. For the same compound, the AC50 on p53 Y220C was 1500 to 3000 nM.

As for `CN1CC[C@@H](Nc2cccn3c(SC(F)(F)F)c(-c4noc(CNC(=O)c5ccns5)n4)cc23)[C@@H](F)C1` [Example 27, N-{[3-(8-{[(3S,4R)-3-fluoro-1-methylpiperidin-4-yl]amino}-3-[(trifluoromethyl)sulfanyl]indolizin-2-yl)-1,2,4-oxadiazol-5-yl]methyl}-1,2-thiazole-5-carboxamide], the IC50 is less than 750 nM in the test with NUGC3 cells (p53 Y220C) and 750 to 1500 nM in test [2]. Further, the equilibrium dissociation constant (Kd) in test [1] was less than 10 nM. On p53 Y220C, the concentration at half-maximal activity (AC50) is less than 750 nM.

For `CN1CC[C@@H](Nc2cccn3c(SC(F)(F)F)c(-c4noc(CNC(=O)[C@H]5COCCO5)n4)cc23)[C@@H](F)C1` [Example 29], the IC50 (in the test on NUGC3 cells (p53 Y220C); in test [2]) was 750 to 1500 nM each time. In test [1], this compound gave a Kd of less than 10 nM. For the same compound, on p53 Y220C, the AC50 is 750 to 1500 nM.

For the compound `Cc1ccsc1C(=O)NCc1nc(-c2cc3c(N[C@@H]4CCN(C)C[C@@H]4F)cccn3c2SC(F)(F)F)no1` [Example 30, N-{[3-(8-{[(3S,4R)-3-fluoro-1-methylpiperidin-4-yl]amino}-3-[(trifluoromethyl)sulfanyl]indolizin-2-yl)-1,2,4-oxadiazol-5-yl]methyl}-3-methylthiophene-2-carboxamide], the half-inhibitory concentration (IC50) (in the test on NUGC3 cells (p53 Y220C); in test [2]) was 1500 to 3000 nM in each case. The Kd in test [1] lay within 10 to 100 nM. Further, the AC50 on p53 Y220C was in the range of 750 to 1500 nM.

In the case of `CN1CC[C@@H](Nc2cccn3c(SC(F)(F)F)c(-c4noc(CNC(=O)C#CC5(C)CC5)n4)cc23)[C@@H](F)C1` [Example 31, N-{[3-(8-{[(3S,4R)-3-fluoro-1-methylpiperidin-4-yl]amino}-3-[(trifluoromethyl)sulfanyl]indolizin-2-yl)-1,2,4-oxadiazol-5-yl]methyl}-3-(1-methylcyclopropyl)prop-2-ynamide], the IC50 (with NUGC3 cells (p53 Y220C); in test [2]) was less than 750 nM in each case. The same compound had a dissociation constant Kd in test [1] of less than 10 nM. Also, on p53 Y220C, the AC50 was less than 750 nM.

As to `CN1CC[C@@H](Nc2cccn3c(SC(F)(F)F)c(-c4noc(CNC(=O)c5sccc5F)n4)cc23)[C@@H](F)C1` [Example 32, 3-fluoro-N-{[3-(8-{[(3S,4R)-3-fluoro-1-methylpiperidin-4-yl]amino}-3-[(trifluoromethyl)sulfanyl]indolizin-2-yl)-1,2,4-oxadiazol-5-yl]methyl}thiophene-2-carboxamide], the half-inhibitory concentration (IC50) (in the test on NUGC3 cells (p53 Y220C); in test [2]) was less than 750 nM in each case. The Kd in test [1] is less than 10 nM. Moreover, the AC50 on p53 Y220C is less than 750 nM.

`CN1CC[C@@H](Nc2cccn3c(SC(F)(F)F)c(-c4noc(CNC(=O)c5sccc5N)n4)cc23)[C@@H](F)C1` [Example 33, 3-amino-N-{[3-(8-{[(3S,4R)-3-fluoro-1-methylpiperidin-4-yl]amino}-3-[(trifluoromethyl)sulfanyl]indolizin-2-yl)-1,2,4-oxadiazol-5-yl]methyl}thiophene-2-carboxamide]: the IC50 (in the test with NUGC3 cells (p53 Y220C); in test [2]) was less than 750 nM throughout. The equilibrium dissociation constant (Kd) in test [1] was less than 10 nM. Besides, at p53 Y220C, the AC50 is less than 750 nM.

As to `COc1ccc2nc(C(=O)NCc3nc(-c4cc5c(N[C@@H]6CCN(C)C[C@@H]6F)cccn5c4SC(F)(F)F)no3)ccc2c1` [Example 34, N-{[3-(8-{[(3S,4R)-3-fluoro-1-methylpiperidin-4-yl]amino}-3-[(trifluoromethyl)sulfanyl]indolizin-2-yl)-1,2,4-oxadiazol-5-yl]methyl}-6-methoxyquinoline-2-carboxamide], the IC50 (with NUGC3 cells (p53 Y220C); in test [2]) was 1500 to 3000 nM each time. Also, the dissociation constant Kd in test [1] is 10 to 100 nM. In addition, at p53 Y220C, the concentration at half-maximal activity (AC50) is not below 3000 nM.

As for `COc1ccc2cc(C(=O)NCc3nc(-c4cc5c(N[C@@H]6CCN(C)C[C@@H]6F)cccn5c4SC(F)(F)F)no3)n(C)c2c1` [Example 35, N-{[3-(8-{[(3S,4R)-3-fluoro-1-methylpiperidin-4-yl]amino}-3-[(trifluoromethyl)sulfanyl]indolizin-2-yl)-1,2,4-oxadiazol-5-yl]methyl}-6-methoxy-1-methylindole-2-carboxamide], the IC50 (in the test on NUGC3 cells (p53 Y220C); in test [2]) was 1500 to 3000 nM each time. The Kd in test [1] fell in the range of 10 to 100 nM. Also, on p53 Y220C, the AC50 was not below 3000 nM.

Take `CN1CC[C@@H](Nc2cccn3c(SC(F)(F)F)c(-c4noc(CNC(=O)C5(F)CCOCC5)n4)cc23)[C@@H](F)C1` [Example 36, 4-fluoro-N-{[3-(8-{[(3S,4R)-3-fluoro-1-methylpiperidin-4-yl]amino}-3-[(trifluoromethyl)sulfanyl]indolizin-2-yl)-1,2,4-oxadiazol-5-yl]methyl}oxane-4-carboxamide]: the IC50 (with NUGC3 cells (p53 Y220C); in test [2]) was 1500 to 3000 nM in each case. The compound also showed a Kd in test [1] of 10 to 100 nM. Further, at p53 Y220C, the AC50 was 1500 to 3000 nM.

As for `COc1csc(C(=O)NCc2nc(-c3cc4c(N[C@@H]5CCN(C)C[C@@H]5F)cccn4c3SC(F)(F)F)no2)c1` [Example 37, N-{[3-(8-{[(3S,4R)-3-fluoro-1-methylpiperidin-4-yl]amino}-3-[(trifluoromethyl)sulfanyl]indolizin-2-yl)-1,2,4-oxadiazol-5-yl]methyl}-4-methoxythiophene-2-carboxamide], the IC50 (in the test on NUGC3 cells (p53 Y220C); in test [2]) was less than 750 nM throughout. For the same compound, the Kd in test [1] is less than 10 nM. The AC50 at p53 Y220C was less than 750 nM.

Take `CN1CC[C@@H](Nc2cccn3c(SC(F)(F)F)c(-c4noc(CNC(=O)c5cc(C#N)cs5)n4)cc23)[C@@H](F)C1` [Example 38, 4-cyano-N-{[3-(8-{[(3S,4R)-3-fluoro-1-methylpiperidin-4-yl]amino}-3-[(trifluoromethyl)sulfanyl]indolizin-2-yl)-1,2,4-oxadiazol-5-yl]methyl}thiophene-2-carboxamide]: the IC50 (in the test with NUGC3 cells (p53 Y220C); in test [2]) was less than 750 nM in each case. In test [1], this compound displayed a Kd of 10 to 100 nM. The AC50 on p53 Y220C lay within 750 to 1500 nM.

As for `CN1CC[C@@H](Nc2cccn3c(SC(F)(F)F)c(-c4noc(CNC(=O)c5ccc(C#N)s5)n4)cc23)[C@@H](F)C1` [Example 39, 5-cyano-N-{[3-(8-{[(3S,4R)-3-fluoro-1-methylpiperidin-4-yl]amino}-3-[(trifluoromethyl)sulfanyl]indolizin-2-yl)-1,2,4-oxadiazol-5-yl]methyl}thiophene-2-carboxamide], the IC50 (in the test on NUGC3 cells (p53 Y220C); in test [2]) was less than 750 nM throughout. Moreover, in test [1], the Kd was in the range of 10 to 100 nM. In addition, the concentration at half-maximal activity (AC50) on p53 Y220C is 750 to 1500 nM.

For the compound `CN1CC[C@@H](Nc2cccn3c(SC(F)(F)F)c(-c4noc(CNC(=O)c5ccc6ncsc6c5)n4)cc23)[C@@H](F)C1` [Example 40, N-{[3-(8-{[(3S,4R)-3-fluoro-1-methylpiperidin-4-yl]amino}-3-[(trifluoromethyl)sulfanyl]indolizin-2-yl)-1,2,4-oxadiazol-5-yl]methyl}-1,3-benzothiazole-6-carboxamide], the IC50 (in the test with NUGC3 cells (p53 Y220C); in test [2]) was less than 750 nM each time. Moreover, in test [1], the Kd was in the range of 10 to 100 nM. Moreover, the concentration at half-maximal activity (AC50) at p53 Y220C was less than 750 nM.

With `CN1CC[C@@H](Nc2cccn3c(SC(F)(F)F)c(-c4noc(CNC(=O)c5sccc5OC(F)F)n4)cc23)[C@@H](F)C1` [Example 41, 3-(difluoromethoxy)-N-{[3-(8-{[(3S,4R)-3-fluoro-1-methylpiperidin-4-yl]amino}-3-[(trifluoromethyl)sulfanyl]indolizin-2-yl)-1,2,4-oxadiazol-5-yl]methyl}thiophene-2-carboxamide], the IC50 (in the test with NUGC3 cells (p53 Y220C); in test [2]) was 750 to 1500 nM in each case. Also, the Kd in test [1] was 10 to 100 nM. Besides, the AC50 on p53 Y220C was 750 to 1500 nM.

For the compound `CN1CC[C@@H](Nc2cccn3c(SC(F)(F)F)c(-c4noc(CNC(=O)c5ccc(S(C)(=O)=O)cc5)n4)cc23)[C@@H](F)C1` [Example 42, N-{[3-(8-{[(3S,4R)-3-fluoro-1-methylpiperidin-4-yl]amino}-3-[(trifluoromethyl)sulfanyl]indolizin-2-yl)-1,2,4-oxadiazol-5-yl]methyl}-4-methanesulfonylbenzamide], the IC50 (in the test with NUGC3 cells (p53 Y220C); in test [2]) was less than 750 nM throughout. The compound also showed a Kd in test [1] of less than 10 nM. At p53 Y220C, the concentration at half-maximal activity (AC50) was less than 750 nM.
